Reference: patent publication US20240158348A1, “HERBICIDAL CYCLIC AMIDES N-SUBSTITUTED WITH A HALOALKYLSULFONYLANILIDE GROUP” (FMC Corporation, priority 2021, published 2024)

Experiments:
Format in all cases: in vivo
kochia (Bassia scoparia) = test: Test C postemergence, kochia; settings: for Kochia plant response rating: visual injury, 0 to 100 scale (0 no effect, 100 complete control)
Procedure, shortened: (§1)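 Ratings run from 0, meaning no effect, up to 100, meaning complete control, judged by eye against untreated plants. Treatment was a directed soil spray before emergence or a postemergence spray on 2–10 cm seedlings, with evaluation 10 or 12 days later.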

[1] = system: sedge, umbrella (small-flower umbrella sedge, Cyperus difformis); test: Test D flooded paddy test, umbrella sedge; design: key: 0 = no effect, 100 = complete control; settings: 250 g ai/ha, Flood; applied to paddy water at 2-leaf stage; visual rating after 13 days; scale 0 (no effect) to 100 (complete control)
Procedure, shortened: (§2)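 Plants were grown to the 2-leaf stage, then pots were flooded to 3 cm above soil and compounds applied directly into the paddy water, with that depth held throughout. After 13 days in a greenhouse, injury was visually rated against untreated controls on a 0–100 scale (0 no effect, 100 complete control).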

[2] = system: horseweed (Erigeron canadensis); test: Test C postemergence, horseweed; settings: for Horseweed plant response rating: visual injury, 0 to 100 scale (0 no effect, 100 complete control)
Procedure, shortened: as §1

rice (Oryza sativa) = test: Test D flooded paddy test, rice; design: key: 0 = no effect, 100 = complete control; settings: 250 g ai/ha, Flood; applied to paddy water at 2-leaf stage; visual rating after 13 days; scale 0 (no effect) to 100 (complete control)
Procedure, shortened: as §2

[3] = system: oat, wild (wild oat, Avena fatua); test: Test C preemergence, wild oat; settings: 0 is no effect, 100 is complete control
Procedure, shortened: as §1

[4] = system: pigweed, palmer (palmer amaranth, Amaranthus palmeri); test: Test C postemergence, palmer amaranth; settings: for Pigweed, Palmer plant response rating: visual injury, 0 to 100 scale (0 no effect, 100 complete control)
Procedure, shortened: as §1

[5] = system: blackgrass (Alopecurus myosuroides); test: Test C postemergence, blackgrass; settings: 125 g ai/ha Postemergence; 0 is no effect, 100 is complete control
[6] = system: galium (catchweed bedstraw, Galium aparine); test: Test C postemergence, galium; settings: for Galium plant response rating: visual injury, 0 to 100 scale (0 no effect, 100 complete control)
[7] = system: blackgrass (Alopecurus myosuroides); test: Test C preemergence, blackgrass; settings: 0 is no effect, 100 is complete control
From the text: Seeds of plant species selected from blackgrass (Alopecurus myosuroides), corn (Zea mays), foxtail, giant (giant foxtail, Setaria faberi), goosegrass (Eleusine indica), kochia (Bassia scoparia), oat, wild (wild oat, Avena fatua), pigweed, palmer (palmer amaranth, Amaranthus palmeri), ragweed (common ragweed, Ambrosia artemisiifolia), ryegrass, Italian (Italian ryegrass, Lolium multiflorum), soybean (Glycine max) and wheat (Triticum aestivum) were planted into a blend of loam soil and sand and treated preemergence with a directed soil spray using test chemicals formulated in a non-phytotoxic solvent mixture which included a surfactant.
At the same time, plants selected from these crop and weed species and also galium (catchweed bedstraw, Galium aparine) and horseweed (Erigeron canadensis) were planted in pots containing the same blend of loam soil and sand and treated with postemergence applications of test chemicals formulated in the same manner. Plants ranged in height from 2 to 10 cm and were in the one- to two-leaf stage for the postemergence treatment. Treated plants and untreated controls were maintained in a greenhouse for 10 or 12 days, after which time all treated plants were compared to untreated controls and visually evaluated for injury. Plant response ratings, summarized in Table A, are based on a 0 to 100 scale where 0 is no effect and 100 is complete control. A dash (-) response means no test result.

[8] = 125 g ai/ha Postemergence, 0 is no effect, 100 is complete control

Row | SMILES | Kochia plant response rating (kochia (Bassia scoparia); 31 g ai/ha Postemergence) | Plant response rating (0 to 100 scale), Kochia (kochia (Bassia scoparia); [8]) | Plant response rating, Sedge, Umbrella [1] | Horseweed plant response rating ([2]; 31 g ai/ha Postemergence) | Plant response rating (0 to 100 scale), Horseweed [2, 8] | Plant response rating, Rice (rice (Oryza sativa)) | Plant response rating (0 to 100 scale), Oat, Wild ([3]; 31 g ai/ha Preemergence) | Plant response rating (0 to 100 scale), Oat, Wild ([3]; 125 g ai/ha Preemergence) | Pigweed, Palmer plant response rating ([4]; 31 g ai/ha Postemergence) | Plant response rating (0 to 100 scale), Pigweed, Palmer [4, 8] | Plant response rating (0 to 100 scale), Blackgrass [5] | Galium plant response rating ([6]; 31 g ai/ha Postemergence) | Plant response rating (0 to 100 scale), Galium [6, 8] | Kochia plant response rating (kochia (Bassia scoparia); 125 g ai/ha Postemergence) | Horseweed plant response rating ([2]; 125 g ai/ha Postemergence) | Pigweed, Palmer plant response rating ([4]; 125 g ai/ha Postemergence) | Galium plant response rating ([6]; 125 g ai/ha Postemergence) | Plant response rating (0 to 100 scale), Blackgrass ([7]; 31 g ai/ha Preemergence) | Plant response rating (0 to 100 scale), Blackgrass ([7]; 125 g ai/ha Preemergence)
1 | Cc1cc(C)c(N2CC/C(=N\O)C2=O)cc1NS(=O)(=O)C(F)(F)F [Compound 10, 1,1,1-trifluoro-N-[5-[3-(hydroxyimino)-2-oxo-1-pyrrolidinyl]-2,4-dimethylphenyl]methanesulfonamide] | 60 | 90 | 80 | 80 | 90 | 0 | 90 | 100 | 60 | 90 | 90 | 100 | 100 |  |  |  |  |  | 
2 | Cc1cc(C)c(N2CCC(OCC3CC3(F)F)C2=O)cc1NS(=O)(=O)C(F)(F)F (centres unmarked) [Compound 41] | 70 |  | 70 | 70 |  | 10 | 60 | 100 | 50 |  |  | 100 |  | 80 | 100 | 90 | 100 | 80 | 100
3 | Cc1cc(C)c(N2CCC(OCC3CCCO3)C2=O)cc1NS(=O)(=O)C(F)(F)F (centres unmarked) [Compound 42] | 10 |  | 90 | 20 |  | 15 | 0 | 30 | 50 |  |  | 50 |  | 60 | 80 | 70 | 90 | 20 | 70
4 | Cc1cc(C)c(N2CCC(OCC3CCC3)C2=O)cc1NS(=O)(=O)C(F)(F)F (centres unmarked) [Compound 43] | 20 |  | 95 | 30 |  | 30 | 0 | 50 | 40 |  |  | 70 |  | 60 | 60 | 90 | 90 | 40 | 50
5 | Cc1c(NS(=O)(=O)C(F)(F)F)cc(N2CCC(OC3CCC3)C2=O)c(C)c1C (centres unmarked) [Compound 45] | 70 |  | 90 | 30 |  | 55 | 80 | 90 | 70 |  |  | 100 |  | 100 | 90 | 90 | 100 | 60 | 90
6 | Cc1c(NS(=O)(=O)C(F)(F)F)cc(N2CCC(OC3CC3)C2=O)c(C)c1C (centres unmarked) [Compound 47] | 40 |  | 95 |  |  | 30 | 80 | 100 | 30 |  |  | 80 |  | 80 | 100 | 70 | 90 |  | 
7 | Cc1c(N2CCC(OC3CC3)C2=O)cc(N(C(=O)OCC(C)C)S(=O)(=O)C(F)(F)F)c(C)c1C (centres unmarked) [Compound 50] | 20 |  | 95 |  |  | 20 | 70 | 80 | 20 |  |  | 60 |  | 70 |  | 60 | 100 |  | 
8 | Cc1c(N2CCC(OC3CCC3)C2=O)cc(N(COC(=O)C(C)(C)C)S(=O)(=O)C(F)(F)F)c(C)c1C (centres unmarked) [Compound 51] | 30 |  | 90 | 60 |  | 10 | 20 | 50 | 10 |  |  | 60 |  | 70 | 90 | 60 | 90 |  | 
9 | Cc1cc(C)c(N(COC(=O)C(C)(C)C)S(=O)(=O)C(F)(F)F)cc1N1CCC(OCC2CC2)C1=O (centres unmarked) [Compound 53] | 20 |  | 98 | 80 |  | 25 | 0 | 90 | 40 |  |  |  |  | 50 | 90 | 70 |  |  | 
10 | Cc1cc(C)c(N(COC(=O)C(C)(C)C)S(=O)(=O)C(F)(F)F)cc1N1CCC(OCC2CC2(F)F)C1=O (centres unmarked) [Compound 54] | 30 |  | 98 | 70 |  | 0 | 0 | 80 | 0 |  |  |  |  | 50 | 90 | 50 |  |  | 
11 | Cc1cc(C)c(N(COC(=O)C(C)(C)C)S(=O)(=O)C(F)(F)F)cc1N1CCC(OCC2CCC2)C1=O (centres unmarked) [Compound 56] | 0 |  | 95 | 20 |  | 0 | 0 | 0 | 0 |  |  |  |  | 30 | 80 | 40 |  |  | 
12 | Cc1cc(C)c(N2CCC(OCC3CCCC3)C2=O)cc1NS(=O)(=O)C(F)(F)F (centres unmarked) [Compound 57] | 50 |  | 95 | 0 |  | 10 | 20 | 80 | 40 |  |  | 50 |  | 70 | 80 | 70 | 90 | 40 | 80
13 | C#CC(C)OC1CCN(c2cc(NS(=O)(=O)C(F)(F)F)c(C)cc2C)C1=O (centres unmarked) [Compound 58] | 70 |  | 95 | 90 |  | 60 | 90 | 100 | 50 |  |  | 90 |  | 90 | 90 | 80 | 90 | 80 | 100
14 | C=C(C)COC1CCN(c2cc(NS(=O)(=O)C(F)(F)F)c(C)cc2C)C1=O (centres unmarked) [Compound 59] | 70 |  | 95 | 20 |  | 40 | 80 | 100 | 40 |  |  | 100 |  | 80 | 80 | 80 | 100 | 70 | 90
15 | Cc1c(NS(=O)(=O)C(F)(F)F)cc(N2CCC(OCC3CCC3)C2=O)c(C)c1F (centres unmarked) [Compound 64] | 50 |  | 95 | 10 |  | 15 | 20 | 90 | 60 |  |  | 100 |  | 100 | 60 | 70 | 100 | 20 | 70
